This note sets out measurements from PubChem BioAssay (NCI).

Test systems include A549 NSCLC; ACHN renal; NCI-H522 lung; OVCAR-5 ovarian; SF-295 CNS; SNB-75 CNS; SR leukemia; SK-MEL-2 melanoma; SK-MEL-28 melanoma.
Holding throughout (experiment): DTP human tumour cell line panel, 48 h

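Exposure lasted 48 hours, with cells grown in 96-well plates and compounds tested at five concentrations. Here, GI50 denotes the concentration required for 50% inhibition of growth. TGI: total growth inhibition.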

As for `O=C(CCN1CCOCC1)Nc1ccc(Cn2nnc3c2C(=O)c2nnn(Cc4ccc(NC(=O)CCN5CCOCC5)cc4)c2C3=O)cc1`, the GI50 with A549 NSCLC was above 100 µM; with ACHN renal, above 100 µM; in the test on NCI-H522 lung, 1.63 µM; in the test with OVCAR-5 ovarian, above 100 µM; in the test with SF-295 CNS, above 25.7 µM; in the test on SNB-75 CNS, 1.93 µM. Further, in the test on SR leukemia, the GI50 is 1.68 µM. For the same compound, the concentration for total growth inhibition (TGI) is above 100 µM in the test on A549 NSCLC; above 100 µM in the test with ACHN renal; 4.34 µM with NCI-H522 lung; above 100 µM in the test with OVCAR-5 ovarian; above 100 µM in the test on SF-295 CNS; 3.6 µM in the test with SNB-75 CNS. The same compound showed a concentration for total growth inhibition (TGI) in the test on SR leukemia of 7.62 µM.

Turning to `COc1ccc(C(C)Nc2cc(OC)c(OC)c(OC)c2)cc1` (centres undefined), the TGI was above 100 µM in the test on A549 NSCLC; above 100 µM in the test with ACHN renal; 17.6 µM in the test on NCI-H522 lung; above 100 µM with OVCAR-5 ovarian; 7.53 µM in the test on SF-295 CNS; 81.1 µM in the test with SK-MEL-2 melanoma. Moreover, the total growth inhibition concentration (TGI) in the test with SK-MEL-28 melanoma, in the test on SNB-75 CNS and in the test on SR leukemia was above 100 µM in each case.

Turning to `Cc1ccccc1NC(=O)CC(=O)NNCC(=O)Nc1nnc(-c2ccccc2)s1`, the TGI with A549 NSCLC, with ACHN renal, with NCI-H522 lung, in the test on OVCAR-5 ovarian, in the test on SF-295 CNS and with SK-MEL-2 melanoma was above 100 µM throughout. For the same compound, the concentration for total growth inhibition (TGI) in the test with SK-MEL-28 melanoma is above 100 µM; with SNB-75 CNS it was 63.8 µM; in the test on SR leukemia it was above 100 µM.

For `COC(=O)C1CC(=O)O[C@H]1c1ccc(OC)c(OC)c1` (some centres undefined), the concentration for total growth inhibition (TGI) in the test with A549 NSCLC, in the test with ACHN renal, with OVCAR-5 ovarian, in the test on SF-295 CNS, in the test on SK-MEL-2 melanoma and in the test on SK-MEL-28 melanoma was above 100 µM each time. Also, the TGI in the test with SNB-75 CNS and in the test on SR leukemia was above 100 µM throughout.

Consider `CNS(=O)(=O)NNS(=O)(=O)c1ccc(C)cc1`, for which the TGI in the test on A549 NSCLC, in the test on ACHN renal, with NCI-H522 lung, in the test on OVCAR-5 ovarian, with SF-295 CNS and in the test on SK-MEL-2 melanoma was above 100 µM in each case. For the same compound, the TGI in the test with SK-MEL-28 melanoma and with SR leukemia was above 100 µM throughout.

As for `O=C1Nc2ccc(Cl)cc2/C1=N/c1nc(-c2ccc(Cl)cc2)cs1`, the GI50 in the test with OVCAR-5 ovarian was 1.91 µM; in the test on SK-MEL-2 melanoma, 1.93 µM; with SR leukemia, 2.74 µM. Moreover, the results for the TGI in the test on OVCAR-5 ovarian, in the test on SK-MEL-2 melanoma and with SR leukemia were 4.43 µM, 4.85 µM and above 100 µM, respectively.

As for `COC1=CC(=O)C(O)=C(CC2(C)C(C)CCC3(C)C2CCCC3(C)C)C1=O` (centres undefined), the TGI in the test with A549 NSCLC is 11.6 µM; in the test with ACHN renal it was 29.5 µM; with NCI-H522 lung, 13 µM; with OVCAR-5 ovarian, 21.9 µM; in the test on SF-295 CNS, 16.3 µM; with SK-MEL-2 melanoma it was 15.5 µM. Moreover, the TGI turned out to be 18.2 µM in the test with SK-MEL-28 melanoma, 19 µM with SNB-75 CNS and 12.8 µM in the test on SR leukemia.

As for `Nc1ccccc1C(=O)/C=C/c1ccccc1O`, the TGI with A549 NSCLC, in the test on NCI-H522 lung, in the test on OVCAR-5 ovarian, in the test on SF-295 CNS, in the test with SK-MEL-2 melanoma and with SK-MEL-28 melanoma was above 100 µM each time. The compound further had a TGI with SNB-75 CNS of 68.9 µM.

With `COC(=O)N/N=C(\C)c1sc(-c2nc(C)c(/C(C)=N/NC(=O)OC)s2)nc1C`, the TGI with A549 NSCLC, with ACHN renal, with NCI-H522 lung, in the test with OVCAR-5 ovarian, in the test with SF-295 CNS and in the test on SK-MEL-2 melanoma was above 100 µM in each case. For the same compound, the concentration for total growth inhibition (TGI) in the test with SK-MEL-28 melanoma is above 100 µM; with SNB-75 CNS it was above 100 µM; in the test with SR leukemia, 45.7 µM.

Consider `ON1CCc2c([nH]c3ccccc23)C1c1ccc(Cl)cc1` (centres undefined), for which the TGI is above 100 µM with A549 NSCLC; above 100 µM in the test on ACHN renal; 60 µM with NCI-H522 lung; 99.1 µM in the test with OVCAR-5 ovarian; 91 µM in the test with SF-295 CNS; 64.5 µM in the test on SK-MEL-2 melanoma. The TGI in the test with SK-MEL-28 melanoma, in the test on SNB-75 CNS and with SR leukemia was above 100 µM in each case.

For the compound `CC(C)(C)C1CC[C@H]2c3c([nH]c4ccccc34)[C@H]3C(=O)N(c4ccc(F)cc4)C(=O)[C@H]3[C@H]2C1` (some centres undefined), the TGI with A549 NSCLC amounted to 26.1 µM; with ACHN renal, 27.2 µM; in the test with NCI-H522 lung, 25.3 µM; in the test on OVCAR-5 ovarian, 80 µM; in the test on SF-295 CNS, 28.3 µM; in the test with SK-MEL-2 melanoma it was 33.2 µM. Also, the values for the TGI with SK-MEL-28 melanoma and in the test on SNB-75 CNS were 46.5 µM and 23 µM, respectively.

With `O=C(O)c1cn(C2CC2)c2cc(N3CCN(C(=O)N(c4ccccc4)c4nc(-c5ccccc5)cs4)CC3)c(F)cc2c1=O`, the GI50 in the test with A549 NSCLC was 0.3 µM; in the test with SF-295 CNS, 0.305 µM; with SK-MEL-2 melanoma it was 0.554 µM; in the test with SK-MEL-28 melanoma it was 0.687 µM; in the test on SNB-75 CNS it was 0.334 µM. Besides, the TGI is above 100 µM with A549 NSCLC; 3.04 µM in the test with SF-295 CNS; 2.92 µM in the test on SK-MEL-2 melanoma; above 100 µM in the test on SK-MEL-28 melanoma; 2.8 µM with SNB-75 CNS.

For `CN(C)CCNC(=O)c1cccc2c1nc(-c1cccnc1)c1ccccc12`, the total growth inhibition concentration (TGI) turned out to be 18.3 µM with A549 NSCLC; 14.4 µM with ACHN renal; 34 µM in the test on OVCAR-5 ovarian; 20.1 µM in the test with SF-295 CNS; 22.8 µM with SK-MEL-2 melanoma; 23.6 µM with SK-MEL-28 melanoma. The compound also returned a total growth inhibition concentration (TGI) in the test with SNB-75 CNS of 22 µM.

On to `CC(C)CCCC(C)C1CCC2C3CC([N+](=O)[O-])=C4CC(O)CCC4(C)C3CCC12C` (centres undefined), for which the TGI is 47.1 µM in the test with A549 NSCLC; above 100 µM in the test on ACHN renal; 33.6 µM in the test with NCI-H522 lung; 30 µM in the test with SF-295 CNS; 29 µM with SK-MEL-2 melanoma; 35.2 µM in the test on SK-MEL-28 melanoma. Also, the concentration for total growth inhibition (TGI) in the test with SNB-75 CNS came to 41.5 µM; in the test with SR leukemia, 34.1 µM.

Take `O=C1c2ccccc2C2(O)N(c3ccccc3)C(=S)N(c3ccccc3)C12O` (centres undefined): the TGI in the test on A549 NSCLC, in the test with ACHN renal, with NCI-H522 lung, in the test with OVCAR-5 ovarian, in the test on SF-295 CNS and in the test on SK-MEL-2 melanoma was above 100 µM throughout. Moreover, the TGI in the test with SK-MEL-28 melanoma and with SNB-75 CNS was above 100 µM throughout.

In general, GI50 refers to the concentration giving 50% growth inhibition. Broadly, the TGI is the concentration at which net growth stops. Read a low TGI as more potent growth arrest.
